{"source": "patent EP3563875A1", "about": "“RADIUM FOR RADIONUCLIDE THERAPY, IN COMBINATION WITH CALCIUM […] TREATMENT” (priority 2018, dated 2019)", "key": {"[1]": {"test": "Biodistribution and elimination of 223Ra in mice after i.v. administration", "assay_type": "in vivo, female outbred CD1 mice", "method": "(§1) The study was performed in female outbred CD1 mice imported from Charles River breeds. Animals were housed in groups of five and acclimated over five days. After acclimatization, the animals were divided into four groups. The day before the experiment the feed was taken away and at the beginning of the experiment itself the animals were weighed and placed in cages individually on a nonwoven fabric. After administration of ^223Ra (ca 200 kBq/animal in 0.05 ml of physiological saline) through vena caudalis, excrements were collected after one and four hours; after 24 hours, five mice were sacrificed from each group, another five were sacrificed after 96 hours. Blood, heart, lung, liver, pancreas, spleen, kidney, urinary bladder, wall of the colon, colon content, stomach, stomach content, thyroid gland, brain, femur, ovaries, parts of skin and muscles, and excrements from each mouse were removed. The organs and excrements in the measuring vessels were weighed and measured in a well of NaI (T1) scintillation detector.\nTen mice were medicated with CaCl2 in the concentration of 1.11 g/L for one week prior to administration of ^223Ra. The solution was used to feed per os ad libitum throughout the experiment. Table 3. Biodistribution of 223Ra with CaCl2\n15 mice were pre-medicated with vitamin D3, 160 IU/mouse (0.02 mL of triglyceride oil solution of vitamin D3; 0.2 mg/ml) administered per os with part of the feed, three times a week for one week prior to administration of ^223Ra. Five of these mice were eliminated during the experiment because they refused vitamin intake. Table 4. Biodistribution of 223Ra with vitamin D3\nTen mice were medicated with zoledronic acid; 0.1 mL preparation/mouse was taken from the 4 mg/100 mL infusion solution and administered subcutaneously twice a week for one week before administration of ^223Ra. Table 5. Biodistribution of 223Ra with zoledronic acid\nTen mice were used as a control group. Table 6. Biodistribution of 223Ra\n(§2) Experimental layout was analogous to Example 1 or 2. In the mouse model, the animals were pre-medicated by oral administration of L-arginine for one week. L-arginine was added to the mouse food once a day. The day before administration of radium, Ca2^+ was administered orally in the form of a soluble salt. Subsequently, Ra-223 was administered intravenously as a solution of RaCl2 in physiological NaCl saline.\nExperimental layout was analogous to Example 3. In the mouse model, the animals were pre-medicated by subcutaneous injection of calcitonin for one week so that its serum concentration is about 5 nM. Two days before administration of Ra-223, Ca^2+ was administered orally in the form of a soluble salt. Subsequently, Ra-223 was administered intravenously as a solution."}, "[2]": {"conditions": "cited from earlier work"}, "[3]": {"conditions": "intravenously or subcutaneously; cited from earlier work"}, "[4]": {"test": "Biodistribution and elimination of 223Ra in mice after i.v. administration", "assay_type": "in vivo, female outbred CD1 mice", "conditions": "one week pre-medication, oral soluble Ca2+ salt before Ra-223 i.v.; result in words", "method": "as §1, with “detector. […]” for “detector.”\nas §2, with “Subsequently, Ra-223 was administered intravenously as a solution of RaCl2 in physiological NaCl saline.” left out"}}}
{"compound": "N=C(N)NCCC[C@H](N)C(=O)O", "note": "[L-arginine]", "values": [{"measurement": "Ra uptake in the organism", "setting": "[1]; one week pre-medication, oral soluble Ca2+ salt before Ra-223 i.v., result in words", "value": "Ra uptake and resorption increased in the organism"}]}
{"compound": "[Cl][223Ra][Cl]", "note": "[223Ra, radium-223 dichloride]", "values": [{"measurement": "Kidney %ID/g after 24 h", "setting": "[1]; 223Ra ca 200 kBq/animal i.v., kidney, 24 h", "value": 1.76, "unit": "%ID/g"}, {"measurement": "Kidney %ID/g after 96 h", "setting": "[1]; 223Ra ca 200 kBq/animal i.v., kidney, 96 h", "value": 0.32, "unit": "%ID/g"}, {"measurement": "Large intestine content %ID/g after 24 h", "setting": "[1]; 223Ra ca 200 kBq/animal i.v., large intestine content, 24 h", "value": 2.14, "unit": "%ID/g"}, {"measurement": "Large intestine content %ID/g after 96 h", "setting": "[1]; 223Ra ca 200 kBq/animal i.v., large intestine content, 96 h", "value": 0.27, "unit": "%ID/g"}, {"measurement": "Left femur %ID/g after 24 h", "setting": "[1]; 223Ra ca 200 kBq/animal i.v., left femur, 24 h", "value": 13.37, "unit": "%ID/g"}, {"measurement": "Left femur %ID/g after 96 h", "setting": "[1]; 223Ra ca 200 kBq/animal i.v., left femur, 96 h", "value": 10.33, "unit": "%ID/g"}, {"measurement": "Liver %ID/g after 24 h", "setting": "[1]; 223Ra ca 200 kBq/animal i.v., liver, 24 h", "value": 0.17, "unit": "%ID/g"}, {"measurement": "Liver %ID/g after 96 h", "setting": "[1]; 223Ra ca 200 kBq/animal i.v., liver, 96 h", "value": 0.10, "unit": "%ID/g"}, {"measurement": "Spleen %ID/g after 24 h", "setting": "[1]; 223Ra ca 200 kBq/animal i.v., spleen, 24 h", "value": 8.59, "unit": "%ID/g"}, {"measurement": "Spleen %ID/g after 96 h", "setting": "[1]; 223Ra ca 200 kBq/animal i.v., spleen, 96 h", "value": 6.77, "unit": "%ID/g"}, {"measurement": "Thyroid %ID/g after 24 h", "setting": "[1]; 223Ra ca 200 kBq/animal i.v., thyroid, 24 h", "value": 0.39, "unit": "%ID/g"}, {"measurement": "Thyroid %ID/g after 96 h", "setting": "[1]; 223Ra ca 200 kBq/animal i.v., thyroid, 96 h", "value": 0.07, "unit": "%ID/g"}, {"measurement": "In total after 24 h eliminated in excrements", "setting": "[1]; 223Ra in excrements, 24 h", "value": "33.54 ± 16.22", "unit": "% ID"}, {"measurement": "In total after 96 h eliminated in excrements", "setting": "[1]; 223Ra in excrements, 96 h", "value": "36.43 ± 12.31", "unit": "% ID"}, {"measurement": "In total after 24 h eliminated in urine", "setting": "[1]; 223Ra in urine, 24 h", "value": "16.24 ± 2.29", "unit": "% ID"}, {"measurement": "In total after 96 h eliminated in urine", "setting": "[1]; 223Ra in urine, 96 h", "value": "17.73 ± 2.34", "unit": "% ID"}, {"measurement": "activity in the blood", "setting": "[2]; 24 hours after injection", "value": "less than one percent"}, {"measurement": "administered activity remains in the blood", "setting": "[2]; after four hours", "value": "approximately four percent"}, {"measurement": "volume of distribution", "setting": "[2]; after intravenous injection", "value": "higher than the blood volume"}, {"measurement": "activity remains in the blood", "setting": "[2]; fifteen minutes after the injection", "value": "about 20%"}, {"measurement": "activity administered excreted from the body", "setting": "[2]; whole-body measurement seven days after injection, on average", "value": 76, "unit": "%"}, {"measurement": "uptake in other organs such as the heart, liver, kidney, urinary bladder, and spleen", "setting": "[2]; within four hours after injection", "value": "No significant uptake"}]}
{"compound": "O=P(O)(O)C(O)(Cn1ccnc1)P(=O)(O)O", "note": "[zoledronic acid]", "values": [{"measurement": "NOAEL", "setting": "[3]", "value": 0.02, "unit": "mg/kg/day"}]}
{"compound": "calcitonin", "values": [{"measurement": "Ra uptake in the organism", "setting": "[4]", "value": "Ra-223 uptake increased in the organism"}]}
